Laboratory results as given in PubChem BioAssay AID1963851 (Molecular Pharmacology Branch, DTP, NCI, 2024).
Values joined by “and” are separate entries in the source; they are usually repeats but may differ in a detail not shown here. Identical values can stand only once. Blank lines part the entries; values can stand above or below the molecule they belong to.

Test system: 188146-221-R-J1-PDC complex spheroid viability
Experiment: Anticancer human tumor 188146-221-R-J1-PDC patient-derived colon adenocarcinoma cell line growth inhibition [POLQ]
Conditions: for viability, T/C: stronger effect = lower value
Description: Multicellular complex tumor spheroid response to Polymerase (POL) inhibitors (novobiocin, ART-558, RP6685) in combination with a variety of drugs and investigational agents in selected tumor cell lines
The POL inhibitors (novobiocin, ART-558, and RP6685) were evaluated both individually and in combination with standard of care and investigational anticancer small molecules within a complex spheroid model of solid tumors. . Complex spheroids include a stromal component modeled by human endothelial cells (HUVEC) and fibroblasts modeled by human mesenchymal stem cells (MSCs). The concentration ranges selected for each drug and investigational agent were based upon clinically achievable concentrations if the clinical Cmax of the agent was known.
Compounds. The drugs and investigational agents: novobiocin (NSC847541), ART-558 (NSC835418), RP-6685 (NSC848927), peposertib (NSC802822), ceralasertib (NSC780249), elimusertib (NSC800525), camonsertib (NSC841442), AZD-1390 (NSC803789), olaparib (NSC753686), talazoparib (NSC767125), rucaparib (NSC756644), sotorasib (NSC818433), MRTX-1133 (NSC836407), SN-38 (NSC673596), topotecan (NSC609699), epotoside (NSC141540), doxorubicin (NSC123127), gemcitabine (NSC613327), 5-fluorouracil (NSC19893), paclitaxel (NSC125973), vemurafenib (NSC761431), MSA-2 (NSC828583), SN-011 (NSC837082), adavosertib (NSC754352), prexasertib (NSC758257), carboplatin (NSC241240) and oxaliplatin (NSC266046), were obtained from the National Cancer Institute (NCI) Developmental Therapeutics Program Chemical Repository (21). The FDA-approved anticancer drug set is available from the Developmental Therapeutics Program at https://dtp.cancer.gov/organization/dscb/obtaining/. […] The stock solutions were prepared in dimethyl sulfoxide (DMSO, Sigma-Aldrich, St. Louis, MO, cat. D2650), except for the platinum compounds which were prepared in saline (Quality Biological, Gaithersburg, MD, cat. 114-055-101), at 800-fold the tested concentration and stored at -70 degrees C prior to their use. All drugs and investigational agents were tested over a range starting from a high concentration at or near the clinical Cmax and decreasing in half-log increments. If the clinical Cmax for an agent had not been determined, the highest concentration tested was 10 microM, except for SN-38, which was tested at a high concentration of 1 microM.
Cell Culture. All cells were maintained in an incubator at 37 degrees C and 5% CO2 with 95% humidity. The PDC lines were cultured according to standard operating procedures established by the NCI PDMR (https://pdmr.cancer.gov). Table 3 of the manuscript, lists the cell lines along with the number of the three cell types plated to form the mct-spheroids and media for tumor cell growth. After thawing, all PDC lines, except 997537-175-T-J1-PDC and 415267-285-R-J2-PDC, were cultured in Matrigel-coated flasks prepared with a working solution of 1X Ham's F-12 nutrient mix, without supplementation (Thermo Fisher Scientific, cat. 11765054), 100 U/mL penicillin-streptomycin (Thermo Fisher Scientific, cat. 15140122), and 2.5% Matrigel (Corning Inc., Corning, NY, cat. 354248) for the first three passages. The two PDC lines 997537-175-T-J1-PDC and 415267-285-R-J2-PDC were cultured on uncoated flasks. The 857933-349-R-J2-PDC line was cultured in 6C/Colon 1B media containing advanced DMEM/F-12 (Thermo Fisher Scientific, cat. 12634028), 10 mM HEPES (Thermo Fisher Scientific, cat. 15630080), 1X GlutaMAX supplement (Thermo Fisher Scientific, cat. 35050061), 0.1 mg/mL primocin (InvivoGen, San Diego, CA, cat. ant-pm-2), 10% defined fetal bovine serum, heat inactivated (HyClone Laboratories Inc., Logan, UT, cat. SH30070.03HI), 50% L-WRN conditioned media (ATCC, cat. CRL-3276), 1.25 mM N-Acetyl-L-cysteine (Sigma-Aldrich, cat. A9165), 10 mM nicotinamide (Sigma-Aldrich, cat. N0636), 1X B-27 supplement (Thermo Fisher Scientific, cat. 17504044), 1X N-2 supplement (Thermo Fisher Scientific, cat. […]

[1] = compound alone, run of 11/06/2023
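Also: spheroids exposed to compounds for seven days.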
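For viability, T/C in this document: 100% = DMSO vehicle control viability.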

IC50 [1]: > 10 µM
Structure (SMILES): Nc1ccc(C#CCN(C(=O)Cc2ncc(C(F)(F)F)cc2C(F)(F)F)c2ccc(F)cc2)nn1
viability, T/C (compound 0.0316 µM): 94.8% [middle of 12 runs]
viability, T/C (compound 0.1 µM): 99.1% [middle of 13 runs]
viability, T/C (compound 0.316 µM): 105% [middle of 13 runs]
viability, T/C (compound 1 µM): 102% [middle of 13 runs]
viability, T/C (compound 3.16 µM): 101% [middle of 12 runs]
viability, T/C (compound 10 µM): 108% [middle of 13 runs]

Structure (SMILES): CC(C)n1c(=O)n(C)c2cnc3cc(F)c(-c4ccc(OCCCN5CCCCC5)nc4)cc3c21 + Cc1cccc(N(C)C(=O)C2C(O)CCN2c2nc(C)cc(C(F)(F)F)c2C#N)c1
IC50 (curve of first compound, second compound 0.0316 µM): > 10 µM
IC50 (curve of first compound, second compound 0.1 µM): > 10 µM
IC50 (curve of first compound, second compound 0.316 µM): > 10 µM
IC50 (curve of first compound, second compound 1 µM): > 10 µM
IC50 (curve of first compound, second compound 3.16 µM): > 10 µM
IC50 (curve of first compound, second compound 10 µM): > 10 µM
viability, T/C (second compound 0.0316 µM, first compound 0.0316 µM): 110%
viability, T/C (second compound 0.0316 µM, first compound 0.1 µM): 97.9%
viability, T/C (second compound 0.0316 µM, first compound 0.316 µM): 100%
viability, T/C (second compound 0.0316 µM, first compound 1 µM): 106%
viability, T/C (second compound 0.0316 µM, first compound 3.16 µM): 102%
viability, T/C (second compound 0.0316 µM, first compound 10 µM): 83.7%
viability, T/C (second compound 0.1 µM, first compound 0.0316 µM): 109%
viability, T/C (second compound 0.1 µM, first compound 0.1 µM): 98.5%
viability, T/C (second compound 0.1 µM, first compound 0.316 µM): 107%
viability, T/C (second compound 0.1 µM, first compound 1 µM): 113%
viability, T/C (second compound 0.1 µM, first compound 3.16 µM): 90.5%
viability, T/C (second compound 0.1 µM, first compound 10 µM): 89.1%
viability, T/C (second compound 0.316 µM, first compound 0.0316 µM): 108%
viability, T/C (second compound 0.316 µM, first compound 0.1 µM): 115%
viability, T/C (second compound 0.316 µM, first compound 0.316 µM): 98.7%
viability, T/C (second compound 0.316 µM, first compound 1 µM): 100%
viability, T/C (second compound 0.316 µM, first compound 3.16 µM): 85.4%
viability, T/C (second compound 0.316 µM, first compound 10 µM): 85.9%
viability, T/C (second compound 1 µM, first compound 0.0316 µM): 111%
viability, T/C (second compound 1 µM, first compound 0.1 µM): 107%
viability, T/C (second compound 1 µM, first compound 0.316 µM): 104%
viability, T/C (second compound 1 µM, first compound 1 µM): 93%
viability, T/C (second compound 1 µM, first compound 3.16 µM): 88.6%
viability, T/C (second compound 1 µM, first compound 10 µM): 86.5%
viability, T/C (second compound 3.16 µM, first compound 0.0316 µM): 103%
viability, T/C (second compound 3.16 µM, first compound 0.1 µM): 104%
viability, T/C (second compound 3.16 µM, first compound 0.316 µM): 100%
viability, T/C (second compound 3.16 µM, first compound 1 µM): 82%
viability, T/C (second compound 3.16 µM, first compound 3.16 µM): 99.6%
viability, T/C (second compound 3.16 µM, first compound 10 µM): 81.8%
viability, T/C (second compound 10 µM, first compound 0.0316 µM): 91.6%
viability, T/C (second compound 10 µM, first compound 0.1 µM): 85.8%
viability, T/C (second compound 10 µM, first compound 0.316 µM): 101%
viability, T/C (second compound 10 µM, first compound 1 µM): 97.4%
viability, T/C (second compound 10 µM, first compound 3.16 µM): 93.7%
viability, T/C (second compound 10 µM, first compound 10 µM): 95%

IC50 (compound alone, run of 10/31/2023): > 10 µM
IC50 [1]: > 10 µM
Structure (SMILES): Cc1cccc(N(C)C(=O)C2C(O)CCN2c2nc(C)cc(C(F)(F)F)c2C#N)c1 (stereo not given)
viability, T/C (compound 0.1 µM): 102% [middle of 13 runs]
viability, T/C (compound 0.316 µM): 100% [middle of 13 runs]
viability, T/C (compound 1 µM): 105% [middle of 13 runs]
viability, T/C (compound 3.16 µM): 101% [middle of 13 runs]
viability, T/C (compound 10 µM): 97.8% [middle of 13 runs]

Structure (SMILES): Nc1ccn(C2OC(CO)C(O)C2(F)F)c(=O)n1 (stereo not given)
viability, T/C (compound 0.0316 µM): 27.1% and 27.6% and 53.7%
viability, T/C (compound 0.1 µM): 17.8% and 15.8% and 24.2%
viability, T/C (compound 0.316 µM): 13.2% and 15.2% and 14.9%
viability, T/C (compound 1 µM): 16.1% and 16.9% and 13.9%
viability, T/C (compound 3.16 µM): 15.9% and 19.2% and 16.6%
viability, T/C (compound 10 µM): 10.9% (2×) and 15.4%
IC50 (curve of compound): < 0.0316 µM and 0.0364 µM

Structure (SMILES): COc1cccc(OCCCN)c1-c1cc(Nc2cnc(C#N)cn2)n[nH]1
viability, T/C (compound 0.00316 µM): 97.7% and 99% and 88.2%
viability, T/C (compound 0.01 µM): 88.1% and 99.5% and 101%
viability, T/C (compound 0.0316 µM): 42.7% and 75.8% and 72.2%
viability, T/C (compound 0.1 µM): 20.7% and 37.1% and 32.8%
viability, T/C (compound 0.316 µM): 12.7% and 16.1% and 16.8%
viability, T/C (compound 1 µM): 9.17% and 13% (2×)
IC50 (curve of compound): 0.0272 µM and 0.068 µM and 0.0612 µM
